Usually IC50 stands for the concentration that gives 50% inhibition.

Structures are written as SMILES. Bounds are passed on as bounds.

The target of the assay is T1, Androgen receptor (AR) (Homo sapiens, UniProt P10275).
T1 construct: expressed in transfected cells; host or cells: HEK293T (AR+ARE/Luc)
T1 sequence (P10275 1-920): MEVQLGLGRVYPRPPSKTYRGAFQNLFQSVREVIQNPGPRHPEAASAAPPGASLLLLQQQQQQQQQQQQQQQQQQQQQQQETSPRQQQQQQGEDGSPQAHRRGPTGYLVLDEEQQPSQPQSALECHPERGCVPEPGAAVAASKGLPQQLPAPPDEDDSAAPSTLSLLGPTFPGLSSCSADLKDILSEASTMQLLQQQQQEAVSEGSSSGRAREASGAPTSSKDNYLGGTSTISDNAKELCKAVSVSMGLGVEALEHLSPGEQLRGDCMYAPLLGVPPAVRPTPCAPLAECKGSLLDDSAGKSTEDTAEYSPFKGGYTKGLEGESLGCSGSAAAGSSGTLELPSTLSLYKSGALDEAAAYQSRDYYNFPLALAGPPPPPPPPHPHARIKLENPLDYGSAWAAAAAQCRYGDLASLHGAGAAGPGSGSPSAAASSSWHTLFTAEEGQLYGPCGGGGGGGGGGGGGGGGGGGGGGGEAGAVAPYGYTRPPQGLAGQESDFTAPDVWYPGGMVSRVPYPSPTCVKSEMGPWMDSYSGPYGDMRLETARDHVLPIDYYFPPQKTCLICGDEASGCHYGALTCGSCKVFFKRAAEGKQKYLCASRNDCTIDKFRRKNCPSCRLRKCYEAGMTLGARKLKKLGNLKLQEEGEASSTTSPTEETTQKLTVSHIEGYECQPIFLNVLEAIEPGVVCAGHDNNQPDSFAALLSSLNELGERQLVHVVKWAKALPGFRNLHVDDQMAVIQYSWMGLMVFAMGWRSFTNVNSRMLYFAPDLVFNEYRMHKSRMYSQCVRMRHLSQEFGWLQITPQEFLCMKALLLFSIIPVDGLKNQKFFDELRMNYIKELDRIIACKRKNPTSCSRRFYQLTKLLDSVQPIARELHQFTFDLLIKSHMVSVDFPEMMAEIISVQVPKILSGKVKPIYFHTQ
The assay can be described thus: Androgen receptor (AR) reporter gene assay (luciferase). It counts as cell-based. As to conditions: AR+ARE/Luc HEK293T cells, stimulated with 11-KDHT, 24h incubation, Bright-Lite luminescence; read-out: HEK293 Luc IC50. As to the method:
Androgen receptor (AR) reporter gene assay
Experimental reagents: 11-Ketodihydrotestosterone (11-KDHT) was purchased from MCE (cat.HY-135794); Enzalutamide (MDV3100) was purchased from Selleck (cat.S1250); Bright-Lite Luciferase Assay kit was purchased from Vazyme (cat.DD1204-01);
• 1. dissolve the described compounds in 100% DMSO at a final concentration of 10 mM. 100 nL each of 400X compound to be tested and 400X 11-KDHT (40 nM) were added to a 384-well assay plate with Echo, followed by 20 µL of complete medium, and centrifuged at 1000 rpm for 1 min, and oscillated for 20-30 min at room temperature. • 2. 20 µL of AR+ARE/Luc HEK293T cells (10,000 cells/well) were inoculated into the assay plate containing the compounds and 11-KDHT, and centrifuged at 1000 rpm for 1 min. The assay plate was incubated in a 37 °C CO2 incubator for 24h. • 3. 40 µL of Bright-Lite assay reagent was transferred to each well of the assay plate, centrifuged at 1000 rpm for 1 min, and shaken for 2 min at room temperature protected from light. Luminescence values (RLU) were measured using Envision. Based on the results, the IC50 values of the compounds described were calculated. Table 1 HEK293-Luc% inhibition IC50 of representative compounds
In general terms: Reporter assays use an easily measured gene product as a stand-in for the process of interest.
Regarding `CN1CCc2c(cc(Cl)c(OCCCl)c2Cl)C1c1ccc2[nH]ncc2c1` (racemic) [HANT-146, 5,7-dichloro-6-(2-chloroethoxy)-1-(1H-indazol-5-yl)-2-methyl-1,2,3,4-tetrahydroisoquinoline], the concentration for half-maximal inhibition (IC50) was 1 to 500 nM.

As to `N#Cc1cc2c(c(Cl)c1OCCCl)CCCC2Nc1cnc2[nH]ncc2c1` (racemic) [HANT-192, 8-((1H-pyrazolo[3,4-b]pyridin-5-yl)amino)-4-chloro-3-(2-chloroethoxy)-5,6,7,8-tetrahydronaph thalene-2-carbonitrile], the IC50 is 1 to 500 nM.

On to `N#Cc1cc2c(c(Cl)c1OCCCl)CCCC2c1cnc(N)nc1` (racemic) [HANT-204], for which the IC50 was 1 to 500 nM.

Consider `ClCCOc1c(Cl)cc2c(c1Cl)CCCC2c1ccc2[nH]ncc2c1` (stereo not drawn) [HANT-100, 5-(5,7-dichloro-6-(2-chloroethoxy)-1,2,3,4-tetrahydronaphthalen-1-yl)-1H-indazole], for which the IC50 lay within 1 to 500 nM.

Take `Oc1ccc(C2CCCc3c2cc(Cl)c(OCCCl)c3Cl)cn1` (stereo not drawn) [HANT-101]: the IC50 is 1000 to 2000 nM.

With `Oc1ccc(C2CCCc3c2cc(Cl)c(OCCCl)c3Cl)nc1` (stereo not drawn) [HANT-102, 6-(5,7-dichloro-6-(2-chloroethoxy)-1,2,3,4-tetrahydronaphthalen-1-yl)pyridin-3-ol], the IC50 lay in the range of 500 to 1000 nM.

Turning to `Fc1cc2c(c(F)c1OCCCl)CCCC2c1ccc2[nH]ncc2c1` (stereo not drawn) [HANT-103, 5-(6-(2-chloroethoxy)-5,7-difluoro-1,2,3,4-tetrahydronaphthalen-1-yl)-1H indazole], the IC50 lay within 500 to 1000 nM.

In the case of `N#Cc1cc2c(c(Cl)c1OCCCl)CCCC2c1ccc(O)cc1` (stereo not drawn) [HANT-105, 4-chloro-3-(2-chloroethoxy)-8-(4-hydroxyphenyl)-5,6,7,8-tetrahydronaphthalene-2-carbonitrile], the IC50 fell in the range of 1 to 500 nM.

For `N#Cc1c2c(cc(Cl)c1OCCCl)C(c1ccc(O)cc1)CCC2` (stereo not drawn) [HANT-106, 3-chloro-2-(2-chloroethoxy)-5-(4-hydroxyphenyl)-5,6,7,8-tetrahydronaphthalene-1-carbonitrile], the IC50 lay in the range of 1 to 500 nM.

On to `Oc1ccc(C2CCc3cc(OCCCl)c(Cl)cc32)cc1` (stereo not drawn) [HANT-107, 4-(6-chloro-5-(2-chloroethoxy)-2,3-dihydro-1H-inden-1-yl)phenol], for which the IC50 lay in the range of 1000 to 2000 nM.

As for `Oc1ccc(C2CCc3c2ccc(OCCCl)c3Cl)cc1` (stereo not drawn) [HANT-108, 4-(4-chloro-5-(2-chloroethoxy)-2,3-dihydro-1H-inden-1-yl)phenol], the IC50 was in the range of 1 to 500 nM.

For the molecule `Oc1ccc(C2CCCc3c2cc(Cl)c(OCCCl)c3Cl)cc1F` (stereo not drawn) [HANT-109], the IC50 fell in the range of 1000 to 2000 nM.

As for `Oc1ccc(C2CCCc3c2cc(Cl)c(OCCCl)c3Cl)c(F)c1` (stereo not drawn) [HANT-110, 4-(5,7-dichloro-6-(2-chloroethoxy)-1,2,3,4-tetrahydronaphthalen-1-yl)-3-fluorophenol], the IC50 is 1 to 500 nM.

As for `ClCCOc1c(Cl)cc2c(c1Cl)CCCC2c1ccc2[nH]cnc2c1` (stereo not drawn) [HANT-112], the IC50 was 500 to 1000 nM.

Regarding `ClCCOc1c(Cl)cc2c(c1Cl)CCCC2c1ccc2[nH]nnc2c1` (stereo not drawn) [HANT-113, 5-(5,7-dichloro-6-(2-chloroethoxy)-1,2,3,4-tetrahydronaphthalen-1-yl)-1H-benzo[d][1,2,3]triaz ole], the IC50 lay in the range of 500 to 1000 nM.

Take `O=c1[nH]c2ccc(C3CCCc4c3cc(Cl)c(OCCCl)c4Cl)cc2o1` (stereo not drawn) [HANT-114]: the IC50 lay in the range of 1 to 500 nM.

In the case of `CN1CCc2c(cc(Cl)c(OCCCl)c2Cl)C1c1ccc(O)cc1` (stereo not drawn) [HANT-115, 4-(5,7-dichloro-6-(2-chloroethoxy)-2-methyl-1,2,3,4-tetrahydroisoquinolin-1-yl)phenol], the 50% inhibitory concentration (IC50) is 1 to 500 nM.

In the case of `Cn1c(=O)[nH]c2ccc(C3CCCc4c3cc(Cl)c(OCCCl)c4Cl)cc21` (stereo not drawn) [HANT-117], the IC50 was 1000 to 2000 nM.

Turning to `ClCCOc1c(Cl)cc2c(c1Cl)CCC[C@H]2c1ccc2[nH]ncc2c1` [HANT-118], the IC50 was in the range of 1 to 500 nM.

As to `CCCOc1c(C#N)cc2c(c1Cl)CCCC2Nc1ccc(OC)nc1` (stereo not drawn) [HANT-121], the IC50 lay within 1 to 500 nM.

For `N#Cc1cc2c(c(Cl)c1OCCCl)CCCC2Nc1ccc(OCCO)nc1` (stereo not drawn) [HANT-122], the IC50 fell in the range of 1 to 500 nM.

Consider `OC1CCN(C2CCCc3c2cc(Cl)c(OCCCl)c3Cl)CC1` (stereo not drawn) [HANT-123], for which the IC50 was 500 to 1000 nM.

In the case of `Oc1ccc2c(c1)CCN(C1CCCc3c1cc(Cl)c(OCCCl)c3Cl)C2` (stereo not drawn) [HANT-124, 2-(5,7-dichloro-6-(2-chloroethoxy)-1,2,3,4-tetrahydronaphthalen-1-yl)-1,2,3,4-tetrahydroisoqui nolin-6-ol], the IC50 was more than 2000 nM.

For `ClCCOc1c(Cl)cc2c(c1Cl)CCCC2N1CCc2[nH]ncc2C1` (stereo not drawn) [HANT-125], the IC50 was 1 to 500 nM.

As to `ClCCOc1c(Cl)cc2c(c1Cl)CCCC2N1CCc2cn[nH]c2C1` (stereo not drawn) [HANT-126], the IC50 was 500 to 1000 nM.

Consider `ClCCOc1c(Cl)cc2c(c1Cl)CCCN2c1ccc2[nH]ncc2c1` [HANT-127, 5,7-dichloro-6-(2-chloroethoxy)-1-(1H-indazol-5-yl)-1,2,3,4-tetrahydroquinoline], for which the IC50 lay in the range of 500 to 1000 nM.

On to `Cn1ncc2cc(C3CCCc4c3cc(Cl)c(OCCCl)c4Cl)ccc21` (stereo not drawn) [HANT-131], for which the IC50 was more than 2000 nM.

As to `CNC(=O)c1n[nH]c2ccc(C3CCCc4c3cc(Cl)c(OCCCl)c4Cl)cc12` (stereo not drawn) [HANT-132, 5-(5,7-dichloro-6-(2-chloroethoxy)-1,2,3,4-tetrahydronaphthalen-1-yl)-N-methyl-1H-indazole-3-carboxamide], the IC50 is more than 2000 nM.

Take `Nc1n[nH]c2ccc(C3CCCc4c3cc(Cl)c(OCCCl)c4Cl)cc12` (stereo not drawn) [HANT-133, 5-(5,7-dichloro-6-(2-chloroethoxy)-1,2,3,4-tetrahydronaphthalen-1-yl)-1H-indazol-3-amine]: the IC50 was 1000 to 2000 nM.

For the molecule `ClCCOc1c(Cl)cc2c(c1Cl)CCCC2c1ccc2cn[nH]c2c1` (stereo not drawn) [HANT-134], the IC50 was 1 to 500 nM.

For `O=C1Cc2cc(C3CCCc4c3cc(Cl)c(OCCCl)c4Cl)ccc2N1` (stereo not drawn) [HANT-135], the IC50 lay within 1 to 500 nM.

Turning to `COc1cc(O)ccc1C1CCCc2c1cc(Cl)c(OCCCl)c2Cl` (stereo not drawn) [HANT-137], the IC50 was 1000 to 2000 nM.

As for `N#Cc1cc2c(c(Cl)c1OCCCl)CCCC2c1ccc2[nH]ncc2c1` (stereo not drawn) [HANT-144A, 4-chloro-3-(2-chloroethoxy)-8-(1H-indazol-5-yl)-5,6,7,8-tetrahydronaphthalene-2-carbonitrile], the IC50 was more than 2000 nM.

Take `N#Cc1cc2c(c(Cl)c1OCCCl)CCCC2c1ccc2[nH]ncc2c1` (stereo not drawn) [HANT-144B, 4-chloro-3-(2-chloroethoxy)-8-(1H-indazol-5-yl)-5,6,7,8-tetrahydronaphthalene-2-carbonitrile]: the IC50 lay in the range of 1 to 500 nM.

In the case of `N#Cc1cc2c(c(Cl)c1OCCCl)CCCC2c1ccc2[nH]ncc2n1` (stereo not drawn) [HANT-148, 4-chloro-3-(2-chloroethoxy)-8-(1H-pyrazolo[4,3-b]pyridin-5-yl)-5,6,7,8-tetrahydronaphthalene-2-carbonitrile], the IC50 fell in the range of 500 to 1000 nM.

As to `N#Cc1cc2c(c(Cl)c1OCCCl)CCCC2c1cc2cn[nH]c2cn1` (stereo not drawn) [HANT-149], the IC50 was 1 to 500 nM.

As for `N#Cc1cc2c(c(Cl)c1OCCCl)CCCC2c1cnc2[nH]ncc2c1` (stereo not drawn) [HANT-150A, 4-chloro-3-(2-chloroethoxy)-8-(1H-pyrazolo[3,4-b]pyridin-5-yl)-5,6,7,8-tetrahydronaphthalene-2-carbonitrile], the IC50 was in the range of 1 to 500 nM.

On to `N#Cc1cc2c(c(Cl)c1OCCCl)CCCC2c1cnc2[nH]ncc2c1` (stereo not drawn) [HANT-150B, 4-chloro-3-(2-chloroethoxy)-8-(1H-pyrazolo[3,4-b]pyridin-5-yl)-5,6,7,8-tetrahydronaphthalene-2-carbonitrile], for which the concentration for half-maximal inhibition (IC50) is more than 2000 nM.

Take `ClCCOc1c(Cl)cc2c(c1Cl)CCCN2c1cc2cn[nH]c2cn1` [HANT-164, 5,7-dichloro-6-(2-chloroethoxy)-1-(1H-pyrazolo[3,4-c]pyridin-5-yl)-1,2,3,4-tetrahydroquinoline]: the IC50 is more than 2000 nM.

Values taken from patent EP4678634A1, “ANDROGEN RECEPTOR MODULATORS AND USES THEREOF” (Haihe Biopharma Co., Ltd., priority 2023, dated 2024).
